# According to US9452217B2, “Methods for potentiating immune response for the treatment of infectious diseases and cancer” (Nitor Therapeutics, priority 2013, dated 2016):
# Experiments:
# [1] = tested on: HCV; conditions: chronically HCV infected patients; cited from earlier work
# [2] = tested on: endogenous interferon-a (IFN-a); conditions: healthy volunteers, oral; cited from earlier work
# [3] = biological target: T1, human TLR4 (Homo sapiens, UniProt O00206+Q9Y6Y9); test: TLR ligand screening: NF-κB activation (SEAP reporter) in HEK293 cells expressing TLR4; type: cell-based; conditions: one concentration: Guanosine 100 uM, NTR001 10 uM, Inosine 100 uM; FIG. 2
# T1 construct: expressed in transfected cells; host or cells: HEK293
# T1 sequence (O00206 24-839): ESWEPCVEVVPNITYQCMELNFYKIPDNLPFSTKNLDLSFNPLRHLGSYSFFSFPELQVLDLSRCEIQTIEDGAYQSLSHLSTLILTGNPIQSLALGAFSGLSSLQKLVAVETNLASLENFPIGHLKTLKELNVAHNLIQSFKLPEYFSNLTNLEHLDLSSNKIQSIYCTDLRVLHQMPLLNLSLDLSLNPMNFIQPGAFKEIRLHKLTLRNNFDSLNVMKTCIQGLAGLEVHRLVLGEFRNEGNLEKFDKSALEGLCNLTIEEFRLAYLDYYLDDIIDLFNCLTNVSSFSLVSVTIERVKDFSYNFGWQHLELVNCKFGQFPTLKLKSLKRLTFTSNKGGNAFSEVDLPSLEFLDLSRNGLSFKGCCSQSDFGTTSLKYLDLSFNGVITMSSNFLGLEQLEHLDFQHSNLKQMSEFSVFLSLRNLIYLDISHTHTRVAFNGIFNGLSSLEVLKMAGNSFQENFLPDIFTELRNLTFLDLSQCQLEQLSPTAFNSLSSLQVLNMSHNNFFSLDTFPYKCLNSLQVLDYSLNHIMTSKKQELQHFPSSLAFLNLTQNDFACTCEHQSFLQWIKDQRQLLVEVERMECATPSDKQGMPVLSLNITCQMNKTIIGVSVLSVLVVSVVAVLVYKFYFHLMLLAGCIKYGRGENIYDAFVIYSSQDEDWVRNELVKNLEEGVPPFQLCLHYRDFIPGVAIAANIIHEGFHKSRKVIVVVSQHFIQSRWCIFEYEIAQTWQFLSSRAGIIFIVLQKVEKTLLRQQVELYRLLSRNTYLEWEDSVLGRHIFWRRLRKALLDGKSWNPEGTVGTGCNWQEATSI
# T1 sequence (Q9Y6Y9 17-160 limits assumed): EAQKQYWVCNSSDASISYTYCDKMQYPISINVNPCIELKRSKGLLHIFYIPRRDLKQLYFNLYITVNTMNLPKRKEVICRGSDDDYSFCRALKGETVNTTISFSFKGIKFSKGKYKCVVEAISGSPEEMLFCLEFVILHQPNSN
# Method: (§1) Method: TLR stimulation is tested by assessing NF-κB activation in HEK293 cells expressing a given TLR. The Secreted Embryonic Alkaline Phosphatase (SEAP) reporter is under the control of a promoter inducible by the transcription factor NF-κB. This reporter gene allows the monitoring of signaling through the TLR, based on the activation of NF-κB. The compounds are evaluated at one concentration and compared to control ligands. This step is performed in triplicate.
# [4] = biological target: T2, human TLR2 (Homo sapiens, UniProt O60603); test: TLR ligand screening: NF-κB activation (SEAP reporter) in HEK293 cells expressing TLR2; type: cell-based; conditions: one concentration: Guanosine 100 uM, NTR001 10 uM, Inosine 100 uM; FIG. 2
# T2 construct: expressed in transfected cells; host or cells: HEK293
# T2 sequence (O60603 21-784): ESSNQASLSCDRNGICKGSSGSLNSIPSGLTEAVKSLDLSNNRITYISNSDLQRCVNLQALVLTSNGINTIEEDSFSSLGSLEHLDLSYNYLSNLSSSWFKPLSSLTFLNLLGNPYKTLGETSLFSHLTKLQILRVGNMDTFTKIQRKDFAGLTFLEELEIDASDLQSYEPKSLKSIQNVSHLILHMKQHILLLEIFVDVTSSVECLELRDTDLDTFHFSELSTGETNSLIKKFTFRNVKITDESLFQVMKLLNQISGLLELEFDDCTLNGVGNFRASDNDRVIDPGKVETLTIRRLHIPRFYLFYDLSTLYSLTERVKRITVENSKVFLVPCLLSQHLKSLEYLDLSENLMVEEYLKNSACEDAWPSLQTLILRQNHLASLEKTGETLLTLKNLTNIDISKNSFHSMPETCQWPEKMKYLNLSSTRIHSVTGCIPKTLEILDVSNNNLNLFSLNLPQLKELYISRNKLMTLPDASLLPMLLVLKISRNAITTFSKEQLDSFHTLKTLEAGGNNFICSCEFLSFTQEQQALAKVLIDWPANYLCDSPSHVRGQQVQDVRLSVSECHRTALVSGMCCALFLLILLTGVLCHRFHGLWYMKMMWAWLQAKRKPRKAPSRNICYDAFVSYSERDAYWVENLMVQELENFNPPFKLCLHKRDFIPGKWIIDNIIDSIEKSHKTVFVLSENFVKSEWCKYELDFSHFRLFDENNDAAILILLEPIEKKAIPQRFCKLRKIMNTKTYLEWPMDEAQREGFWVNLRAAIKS
# Method: as §1
# [5] = tested on: B16 tumors; test: Syngeneic mouse melanoma model; type: in vivo, C57BL/6 mice; conditions: cyclophosphamide 100 mg/kg IP single dose; FIG. 6
# Method: Method: Cancer cells were injected subcutaneously in right flank of each mouse, 1×10^4 cells in 0.1 ml PBS with 20% Matrigel. Treatment with the NTR001 was initiated on day 6 after injection of tumor cells. Tumor volume and survival were recorded every 3-4 days.
# [6] = tested on: immune response to tetanus toxoid vaccine; test: PNPi as adjuvant in tetanus toxoid vaccine efficacy study (mouse); type: in vivo; conditions: mice, p.o., ELISA
# [7] = tested on: L. monocytogenes (ATCC Strain35152, hemolytic substrain); test: Mouse model of L. monocytogenes infection; conditions: Balb/c mice infected i.v. with 1×10^6 CFU; 30 mg/kg PO or IP, 2 mg/kg drinking water; FIGS. 7 and 9
structure (smiles),measurement,setting,value
CC(=O)O[C@@H]1C[C@@H](CO)O[C@H]1n1c(=O)sc2cnc(N)nc21 [ANA773],HCV RNA,[1],dose dependent reduction
same,induction of endogenous interferon-a,[2],induction of endogenous interferon-a (IFN-a) of multiple subtypes
Nc1nc2c(ncn2[C@@H]2O[C@H](CO)[C@@H](O)[C@H]2O)c(=O)[nH]1 [Guanosine],stimulatory effect on human TLR4,[3],significant stimulatory effect
same,stimulatory effect on human TLR2,[4],significant stimulatory effect
"O=P1(N(CCCl)CCCl)NCCCO1 (centres unmarked) [Cyclcophosphamide, cyclophosphamide]",survival,[5],30%
"O=c1[nH]cnc2c(CN3C[C@H](CO)[C@@H](O)C3)c[nH]c12 [NTR002, 1,5-dihydro-7-[[(3R,4R)-3-hydroxy-4-(hydroxymethyl)pyrrolidin-1-yl]methyl]-4H-pyrrolo [3,2-d]pyrimidin-4-one]",serum tetanus toxoid antibody titers compared to the vehicle treated group,"[6]; 30 mg/kg (6 days of treatment) and 60 mg/kg (3 days of treatment), day 38, FIG. 3",significantly elevated
same,serum interferon-g compared to the vehicle treated group,"[6]; high dose group 60 mg/kg, day 30, FIG. 4",elevated
same,weight loss,[7],significant decrease in weight loss
